In general, Km refers to the concentration of substrate that gives half-maximal velocity.

The results in this text go back to EP0392745B1, “Immunoconjugates and prodrugs and their use in association for drug delivery” (CELLTECH LIMITED, priority 1989, dated 1990).

The test system of data set [1] is Mouse lymphoma cells, line L5178Y clone 3.7.2.C. The data set is described as follows: Cell tissue culture cytotoxicity assay of relative drug/prodrug toxicity. It counts as cell-based. The protocol: A tissue culture assay using a mouse lymphoma cell line [Phillips (1974), Biochem. Pharmacol. 23, 131-138] was used to determine the relative toxicity of drug and prodrug samples. The cepholosporin - prodrugs tested were those of Example 2,5,6 - 10 and 12.
For compounds of Examples 2, and 7-10 the corresponding non-cephalosporin linked drug was tested. In the case of compounds of Examples 5, 6 and 12 the drug portion of the prodrug was generated in situ in the assay by the addition of the enzyme β-lactamase as indicated below.
Mouse lymphoma cells, line L5178Y clone 3.7.2.C, was used for these studies. This clone was derived from the L5178Y wild-type line and is heterozygous for the thymidine kinase locus. It is widely used for assays of mutation to thymidine analogue resistance (loss of thymidine kinase). Stocks were maintained frozen in liquid nitrogen and recovered 7 days before the start of the study.
The cells were grown in RPMI 1640 medium buffered with 25 mM HEPES, and supplemented with 10% horse serum, 1mM sodium pyruvate, and 0.05% Pluriol (PF 6800 from BASF). In most cases, penicillin (100 iu/ml) and streptomycin (100µg/ml) were also included in the medium. Stock cultures were maintained by subculture into fresh medium every 2-3 days. Incubation was at 37 °C in an atmosphere of 5% CO₂ in air. Under these conditions, the cells grew as a static cell suspension with a population doubling time (cell cycle time) of 10-12 hr.
A growing culture, at a cell density of 1-2 x 10⁶/ml, was diluted with fresh medium to a density of 5 x 10⁵ cells/ml. An appropriate number of universal bottles was prepared with 4.5ml medium and O.5ml cell suspension to give a final cell concentration of 5 x 10⁴ cells/ml. In some tests, the cells were centrifuged and resuspended in Hank's Balanced Salt Solution (HBSS) to allow treatment in a simpler medium. […]
Cell growth was expressed as the number of population doublings (PD) achieved during a given time period ( t hrs ), calculated as follows: [drawing 5]
Growth relative to control ( % G ) was calculated for each treatment as follows: [drawing 6] […]

Data set [2] relates to O=C(Cc1cccs1)N[C@@H]1C(=O)N2C(C(=O)O)=C(CSc3ncnc4[nH]cnc34)CS[C@H]12. The data set can be described thus: purified protein, by the assay type. Conditions: 37.0 °C.

pIC50: −log10 of the molar value. Where two headings read alike, the source gives them in different places.

`Nc1nc(SCC2=C(C(=O)O)N3C(=O)[C@@H](NC(=O)Cc4cccs4)[C@H]3SC2)c2[nH]cnc2n1` [Example 9, 3-(Guanin-6-ylthiomethyl)-7β-(2-acetamido)-3-cephem-4-carboxylic acid]: in data set [1] (mouse lymphoma L5178Y cells), the “Differential Toxicity (ID50 Prodrug/drug)” value is 13. Moreover, the pIC50 in data set [1] (mouse lymphoma L5178Y cells, growth relative to control, read-out: ID50 (the source's name)) was 5.19.
With `Nc1nc2nc[nH]c2c(=S)[nH]1` [Thioguanine (drug), Thioguanine, reference compound], in data set [1] (Mus musculus, L5178Y, read-out: ID50), the pIC50 was 6.28.
“β-lactamase (E.coli RTEM) (Escherichia coli)”: the Km in data set [2] came to 138 µM.
